System: GAB2-pS210
Experiment: In vitro dephosphorylation of GAB2-pS210 (Western blot)
Format: biochemical, human
Details: GAB2-pS210 relative to GAB2, Calyculin A 20 nM 12 min in HeLa Kyoto cells, recombinant PP1c 1 µM, 1 h at 30 °C in lysate
Experimental: pEGFP(C1)-14-3-3β or pCMV-GAB2-3FLAG was transfected into HeLa Kyoto cells as described in the respective section for 24 h. Cells were incubated with or w/o 20 nM Calyculin A (# 9902 S, Cell Signaling Technology) in complete growth media for 12 min. Cells were washed twice on ice with cold PBS and after addition of 500 µL lysis buffer (100 mM NaCl, 10 mM Tris, 0.1% IGEPAL, 1 mM EDTA, 1 mM EGTA, 20 nM Calyculin A, 1x cOmplete Mini protease inhibitor cocktail (Sigma), 2 mM DTT, 2 mM MnCl2) cells were scraped from plates, lysed by 10 pushes through an injection needle and the insoluble fraction was pelleted by centrifugation (10 min, 10^4 rcf, 4 °C). […] Beads were then washed three times with lysis buffer and samples were eluted in 1x SDS sample buffer by heating to 95 °C for 10 min and further analyzed by SDS PAGE for 14-3-3/GAB2 association and phosphorylation status of GAB2-pS210.
For SDS-PAGE, samples were loaded on NuPAGE™ 4-12% Bis-Tris protein gels (Invitrogen) and gel electrophoresis was performed at 180 V constant in 1x MOPS buffer. […] All blots were quantified using raw images and ImageLab software (v6.0.1, BioRad): Files were imported and analyzed without further modifications. […] The quantification was exported from the analysis table and measurements of background adjusted band volumes where used for further normalization steps and graphical depiction. […]

Substance: PP1c: recombinant catalytic subunit of PP1
- p-level of GAB2 pS210: decrease in the p-level
